Assay results reported in patent US10519107B2, “Sulfonamide compounds and their use as STAT5 inhibitors” (Governing Council of the University of Toronto, priority 2014, dated 2019).

Tests used:
[1] = format: in vitro ADME; conditions: mouse
From the text: Within these studies, a series of phase I and phase II metabolites within mouse hepatocytes were identified. […] Each peak from the initial mass spectrum is rerun through a tandem mass spec to identify the major peak along with the corresponding fractionation patterns of that metabolite. […] Peak 2 on the other hand is a combination of both phase I and phase II metabolism. […] Most likely, we deduced the acetylation is occurring at the acid position of the salicylic acid moiety, FIG. 11.
Based on the fragmentation pattern, the most likely site of oxidation could reside on the glycine core or the benzyl ring of the salicylic acid, FIG. 12.

[2] = target: T1, STAT5; conditions: SPR, 25° C., Langmuir 1:1 binding model; read-out: KD (koff/kon) STAT5
T1 construct: rows headed: KD (koff/kon) STAT5
Description: Interactions of His-tagged STAT3 and STAT5 with small molecules were investigated using SPR spectroscopy. The binding experiments were carried on a ProteOn XPR36 (Bio-Rad) biosensor at 25° C. using the HTE sensor chip (Bio-Rad, Ontario, Canada). The flow cells of the sensor chip were loaded with a nickel solution at 30 μL/min for 120 s to saturate the Tris-NTA surface with Ni(II) ions. […] When the injection of the compounds was completed, running buffer was allowed to flow over the immobilized substrates for the non-specifically bound inhibitors to dissociate for 600 s. Following dissociation of the compounds, the chip surface was regenerated with an injection of 1 M NaCl at a flow rate of 100 μL/min for 18 s. Interspot channel reference was used for non-specific binding corrections and the blank channel used with each analyte injection served as a double reference to correct for possible baseline drift. Data were analysed using ProteOn Manager Software version 3.1.

[3] = test system: MV-4;11 (FLT3-ITD) AML cells; assay: CellTiter-Blue cell viability assay, MV-4;11; format: cell-based, Human
Description: Human erythroleukemia K562 and MV-4-11 cells were cultured in Iscove's modified dulbecco's medium (Gibco) supplemented with 10% FBS (Sigma). Breast carcinoma lines MDA-MB-231 and MDA-MB-468 were grown in dulbecco's modified eagles medium (DMEM) supplemented with 10% FBS (sigma). For downregulation of STAT5 activity, cells were treated with 5, 10, 15, 20 μM of 13a-d STAT5 compounds, for 3 h and 5 h time points. As a control, cells were treated with the DMSO alone.
Cell viability was assessed following treatment at various concentrations of inhibitor (0.78-50 μM) using a CellTiter-Blue cell viability assay (72 hours).

SMILES: CC(C)(C)c1cc(CN(C(=O)CN(Cc2ccc(Cl)cc2)S(=O)(=O)c2c(F)c(F)c(F)c(F)c2F)c2ccc(C(=O)O)c(O)c2)cc(C(C)(C)C)c1 [Compound 13a, 4-(2-((N-(4-chlorobenzyl)-2,3,4,5,6-pentafluorophenyl)sulfonamido)-N-(3,5-di-tert-butylbenzyl)acetamido)-2-hydroxybenzoic Acid]
- intact compound recovered ([1]; 240 min): majority of intact 13a is recovered
- glutathione derivatives, collective share of metabolites recovered ([1]; 4 h): 10%
- parent compound recoverable ([1]; 4 h): > 85%
- Kd [2]: 41.9 ± 4 nM
- effect on MV-4;11 cells ([3]; 10 μM): abolished
- IC50 ([3]; Homo sapiens, MV4-11, 72 hours, CellTiter-Blue): 3.5 µM
